Reference: the NIST ThermoML archive (doi:10.1016/j.jct.2016.11.019)
± gives the expanded uncertainty stated by the source.

Test: Molar enthalpy of transition or fusion
Conditions: Crystal; DSC

Nc1cc(Cl)ccc1C(=O)O [2-amino-4-chlorobenzoic acid]
Molar enthalpy of transition or fusion: 6.87 ± 0.237 kcal/mol
